Reference: publication PMC9550238, “Novel TRKB agonists activate TRKB and downstream ERK and AKT signaling to protect Aβ-GFP SH-SY5Y cells against Aβ toxicity” (Aging (Albany NY), 2022)
Like-named read-outs stand apart in the source and are kept apart here.

Key:
[1] = in vitro; assay type: in vitro ADME
Protocol: The permeability of LMDS-1 and -2 was determined by a PAMPA-BBB assay. Firstly, 300 μl of LMDS-1 or -2 (1 μM) solution were added to the donor well (Millipore). Bupropion (a high permeability marker), piroxicam (a low permeability marker), and lucifer yellow (an integrity marker) (Sigma-Aldrich) were used as quality control (QC) compounds for comparison. The sandwich with aqueous donor on the bottom, artificial lipid membrane (PVDF filter coated with porcine polar brain lipid) in the middle, and aqueous acceptor (5% DMSO in PBS) on the top was assembled as stated. Each compound was tested in triplicate. After incubation for 18 h at the ambient temperature, the PAMPA sandwich plate was separated. The concentrations of test and QC compounds in the donor and acceptor wells were measured as stated, and the effective permeability coefficient (Pe) was computed.

[2] = target: T1, Aβ42 peptide (Homo sapiens, UniProt P05067); experiment: Thioflavin T Aβ aggregation inhibition assay; assay type: biochemical; conditions: Aβ42, compounds 5–20 μM
T1 construct: assessed by using Aβ42 peptide (AnaSpec, Fremont, CA, USA); purchased AnaSpec
T1 sequence (P05067 672-713 limits assumed): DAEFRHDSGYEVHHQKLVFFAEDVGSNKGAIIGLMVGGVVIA
Protocol: (§1) Thioflavin T is widely used to visualize and quantify the presence of misfolded amyloid protein aggregates in vitro [59]. […] In addition, DPPH radical (Sigma-Aldrich) was used to assay the free radical scavenging capacity of kaempferol, LM-031 and analogs (10–160 μM) as stated.

[3] = DPPH free radical scavenging assay; assay type: biochemical; conditions: compounds 10–160 μM
Protocol: as §1

[4] = test system: Aβ-GFP SH-SY5Y cells; experiment: Aβ folding reporter GFP fluorescence; assay type: cell-based, Human; conditions: for intensity of GFP fluorescence: untreated cells 100%; for EC50: Homo sapiens, 144 h, Aβ-GFP SH-SY5Y cells, compounds 1.2–5 μM, Dox 6 days, read-out: Aβ aggregation inhibition EC50 (GFP fluorescence)
Protocol: Human neuroblastoma SH-SY5Y-derived Aβ-GFP cells were maintained as stated. The recombinant Aβ-GFP protein has a 12 amino acid-containing linker between the fused Aβ and GFP. Doxycycline (5 μg/ml; Sigma-Aldrich) was used to induce Aβ-GFP expression.
Neuronal differentiation of Aβ-GFP SH-SY5Y cells was induced by retinoic acid (10 μM; Sigma-Aldrich). Cells on 96-well plate (2.5 × 10^4/well) were seeded on day 1, pre-treated with test compounds (1.2–5 μM) plus induced Aβ-GFP expression (5 μg/ml doxycycline) on day 2, and stained with Hoechst 33342 (0.1 μg/ml; Sigma-Aldrich) on day 8 as stated. Cell images were then captured at 482 nm excitation/536 nm emission wavelengths (ImageXpress Micro Confocal high-content system) and analyzed (MetaXpress image acquisition and analysis software) (Molecular Devices, Sunnyvale, CA, USA). In addition, ROS was quantified on day 8 following CellROX Deep Red stain (5 μM; Molecular Probes, Waltham, MA, USA) using the high-content system with excitation/emission wavelengths of 644/665 nm.

[5] = test system: Aβ-GFP SH-SY5Y cells; experiment: Neurite outgrowth analysis; assay type: cell-based, Human; conditions: 5 μM; induced untreated 3.0, uninduced 3.9
Protocol: (§2) As stated, Aβ-GFP SH-SY5Y cells were seeded (6 × 10^4/24-well) with retinoic acid addition on day 1, treated with tested compounds (5 μM) plus induced Aβ-GFP expression (5 μg/ml doxycycline) on day 2, and stained with TUBB3 (tubulin beta 3 class III) primary antibody (1:1000; Covance #MMS-435P, Princeton, NJ, USA), goat anti-rabbit Alexa Fluor® 555 secondary antibody (1:1000; Thermo Fisher Scientific #A27039), and DAPI (4′-6-diamidino-2-phenylindole, 0.1 μg/ml; Sigma-Aldrich) on day 8 [60]. Neuronal pictures were taken using the high-content system and analyzed for neurite length (μm), process (number of neurites protruding from neuronal cell body) and branch (number of neurites extending from process) (MetaXpress neurite outgrowth application module; Molecular Devices). In each of three independent experiments, roughly 6000 cells from each sample were examined.

[6] = parameters: method as in PMID 32496635; conditions: cited from earlier work
[7] = test system: Aβ-GFP SH-SY5Y cells; experiment: TRKB RNA interference, neurite outgrowth; assay type: cell-based, Human; conditions: 5 μM
Protocol: as §2
To knock down TRKB expression in Aβ-GFP SH-SY5Y cells, lentiviral short hairpin RNA (shRNA) targeting TRKB and control (scrambled) were used. Cells were plated in the presence of retinoic acid (5 × 10^5/6-well for protein analysis or 6 × 10^4/24-well for neurite outgrowth analysis) on day 1, infected with lentivirus on day 2, pretreated with test compound (5 μM) plus inducing Aβ-GFP expression on day 3, and collected for neurite outgrowth or TRKB protein analysis on day 9 as stated.

[8] = test system: Aβ-GFP SH-SY5Y cells; experiment: Comparison of BDNF and LMDS compounds on TRKB signaling, immunoblot; assay type: cell-based, Human; conditions: for p-CREB: induced untreated 42%; for p-ERK: induced untreated 64%; for p-AKT: induced untreated 65%
Protocol: (§3) Total proteins from Aβ-GFP SH-SY5Y cells were prepared, quantified, electrophoretically separated and blotted as stated. Following blocking, the membrane was probed with antibody against BDNF (1:500; Santa Cruz Biotechnology #sc-546, Santa Cruz, CA, USA), BCL2 (1:200; Santa Cruz Biotechnology #sc-7382), BAX (1:200; Santa Cruz Biotechnology #sc-7480), TRKB (1:500; Cell Signaling Technology #4603, Danvers, MA, USA), p-TRKB (Y516) (1:200; GeneTex #GTX32230, Irvine, CA, USA), p-TRKB (Y816) (1:1000; Millipore #ABN1381, Billerica, MA, USA), ERK (1:1000; Cell Signaling Technology #9102), p-ERK (T202/Y204) (1:1000; Cell Signaling Technology #9101), AKT (1:1000; Abcam #ab126811, Cambridge, CB, UK), p-AKT (S473) (1:1000; Cell Signaling Technology #4060), CREB (1:500; Santa Cruz Biotechnology #sc-186), p-CREB (S133) (1:1000; Millipore #06-519), or loading control GAPDH (glyceraldehyde-3-phosphate dehydrogenase) (1:1000; MDBio #30000002, Taipei, Taiwan). The immune complexes were detected as stated.

[9] = test system: Aβ-GFP SH-SY5Y cells; experiment: ERK/PI3K kinase inhibitor treatment, immunoblot of TRKB downstream targets; assay type: cell-based, Human; conditions: 5 μM; induced untreated 61–64%
[10] = test system: Aβ-GFP SH-SY5Y cells; experiment: as above; assay type: cell-based, Human
Protocol: Cells were plated in the presence of retinoic acid (5 × 10^5/6-well) on day 1, treated with tested compounds (5 μM) plus induced Aβ-GFP expression with doxycycline (5μg/ml) on day 2, as stated. Kinase inhibitors U0126 (an inhibitor of ERK) or wortmannin (an inhibitor of PI3K) (LC Laboratories, Woburn, MA, USA) (10 μM) were added on day 6. The cells were collected on day 8 for BDNF, BCL2, BAX, total/phosphorylated TRKB, ERK, AKT, and CREB protein analysis as previously stated.
as §3

[11] = 5 μM plus U0126 or wortmannin 10 μM
[12] = 5 μM, no kinase inhibitor, induced untreated 70–71%

Molecule: CC(NC(C)(C)C)C(=O)c1cccc(Cl)c1 (stereo not shown) [Bupropion, bupropion, reference compound]
- Papp at 18 h, 1 μM ([1]; PAMPA): 17.1 ± 1.09 ×10⁻⁶ cm/s

Molecule: O=c1ccc2ccccc2o1 [Coumarin, coumarin, reference compound]
- EC50 [2]: 25 µM
- EC50 [3]: 179 µM
- intensity of GFP fluorescence ([4]; 1.2–5 μM): 113–140%
- EC50 [4]: 9.8 µM

Molecule: COc1cc(/C=C/C(=O)CC(=O)/C=C/c2ccc(O)c(OC)c2)ccc1O [Curcumin, curcumin, reference compound]
- neurite process [5]: 3.7–3.8
- intensity of GFP fluorescence ([4]; 2.5–5 μM): 113–140%
- EC50 [4]: 6.1 µM

Molecule: O=c1c(O)c(-c2ccc(O)cc2)oc2cc(O)cc(O)c12 [Kaempferol, kaempferol, reference compound]
- EC50 [3]: 28 µM

Molecule: O=C(c1ccccc1)c1cc2c(O)cccc2oc1=O [LM-031, 3-benzoyl-5-hydroxychromen-2-one]
- Measured Pe ([6]; PAMPA-BBB): 4.80 ± 0.12 10^−6 cm/s
- PAMPA-BBB classification ([6]; from Pe of ref 34): BBB^+ (high)
- EC50 [2]: 9 µM
- EC50 [3]: 104 µM
- neurite process [5]: 3.7–3.8
- intensity of GFP fluorescence ([4]; 1.2–5 μM): 111–149%
- EC50 [4]: 5.9 µM
- neurite process ([7]; scrambled shRNA, induced untreated 2.6): 3.8
- neurite process ([7]; shRNA targeting TRKB): 2.5

Molecule: CCOc1ccc2cc(C(=O)c3ccccc3)c(=O)oc2c1 [LMDS-1]
- p-CREB ([8]; 5 μM): 85–97%
- p-ERK ([8]; 5 μM): 94–111%
- p-AKT ([8]; 5 μM): 115–118%
- p-TRKB Y516 and Y817 [9]: 113–123%
- EC50 [2]: < 5 µM
- p-ERK level ([10]; 5 μM plus U0126 10 μM): 38–43%
- BAX [10, 11]: 152–191%
- BCL2 [10, 11]: 80–121%
- p-CREB [10, 11]: 52–84%
- pro- and m-BDNF [10, 11]: 65–88%
- BCL2 ([10]; 5 μM, induced untreated 44%): 156–199%
- p-CREB ([10]; 5 μM, induced untreated 66%): 127–142%
- pro- and m-BDNF ([10]; 5 μM, induced untreated 68–52%): 100–169%
- BAX ([10]; 5 μM, induced untreated 225%): 121–130%
- p-AKT level [10, 12]: 110–111%
- p-ERK level [10, 12]: 115%
- EC50 [3]: 117 µM
- intensity of GFP fluorescence ([4]; 1.2–5 μM): 111–149%
- EC50 [4]: 6 µM
- PAMPA-BBB classification [1]: BBB^+ (high)
- Papp at 18 h, 1 μM ([1]; PAMPA): 14.9 ± 3.61 ×10⁻⁶ cm/s

Molecule: O=C(c1ccccc1)c1cc2ccc(O)cc2oc1=O [LMDS-2]
- p-CREB ([8]; 5 μM): 85–97%
- p-ERK ([8]; 5 μM): 94–111%
- p-AKT ([8]; 5 μM): 115–118%
- p-TRKB Y516 and Y817 [9]: 113–123%
- EC50 [2]: 18 µM
- p-ERK level ([10]; 5 μM plus U0126 10 μM): 38–43%
- BAX [10, 11]: 152–191%
- BCL2 [10, 11]: 80–121%
- p-CREB [10, 11]: 52–84%
- pro- and m-BDNF [10, 11]: 65–88%
- BCL2 ([10]; 5 μM, induced untreated 44%): 156–199%
- p-CREB ([10]; 5 μM, induced untreated 66%): 127–142%
- pro- and m-BDNF ([10]; 5 μM, induced untreated 68–52%): 100–169%
- BAX ([10]; 5 μM, induced untreated 225%): 121–130%
- p-AKT level [10, 12]: 110–111%
- p-ERK level [10, 12]: 115%
- EC50 [3]: 146 µM
- intensity of GFP fluorescence ([4]; 1.2–5 μM): 111–149%
- EC50 [4]: 7.5 µM
- PAMPA-BBB classification [1]: BBB^+ (moderate)
- Papp at 18 h, 1 μM ([1]; PAMPA): 3.81 ± 0.13 ×10⁻⁶ cm/s

Molecule: COc1ccc2cc(C(=O)c3ccccc3)c(=O)oc2c1 [LMDS-3]
- EC50 [2]: 14 µM
- EC50 [3]: 167 µM
- intensity of GFP fluorescence ([4]; 2.5–5 μM): 111–149%
- EC50 [4]: 11 µM
- PAMPA-BBB classification [1]: BBB^+ (high)
- Papp at 18 h, 1 μM ([1]; PAMPA): 11.8 ± 4.11 ×10⁻⁶ cm/s

Molecule: CC(=O)Oc1ccc2cc(C(=O)c3ccccc3)c(=O)oc2c1 [LMDS-4]
- EC50 [2]: < 5 µM
- EC50 [3]: 116 µM
- intensity of GFP fluorescence ([4]; 1.2–5 μM): 111–149%
- EC50 [4]: 7.2 µM
- recovery at 18 h, 1 µM ([1]; PAMPA): 12.7%

Molecule: CN1C(C(=O)Nc2ccccn2)=C(O)c2ccccc2S1(=O)=O [Piroxicam, piroxicam, reference compound]
- Papp at 18 h, 1 μM ([1]; PAMPA): 1.65 ± 0.17 ×10⁻⁶ cm/s

Molecule: lucifer yellow [reference compound]
- % transport ([1]; PAMPA): 0.00 (% Transport)

B1: BDNF: Brain-derived neurotrophic factor, a neurotrophic factor binding TRKB (protein, UniProt P23560 19-247, looked up)
Neurotrophic factor BDNF …: APMKEANIRGQGGLAYPGVRTHGTLESVNGPKAGSRGLTSLADTFEHVIEELLDEDQKVRPNEENNKDADLYTSRVMLSSQVPLEPPLLFLLEEYKNYLDAANMSMRVRRHSDPARRGELSVCDSISEWVTAADKKTAVDMSGGTVTVLEKVPVSKGQLKQYFYETKCNPMGYTKEGCRGIDKRHWNSQCRTTQSYVRALTMDSKKRIGWRFIRIDTSCVCTLTIKRGR
- p-CREB ([8]; 100 ng/ml): 85–97%
- p-ERK ([8]; 100 ng/ml): 94–111%
- p-AKT ([8]; 100 ng/ml): 115–118%
